Laboratory results as given in ChEMBL document CHEMBL4385620, “Inhibition of polypeptide N-acetyl-α-galactosaminyltransferases is an underlying mechanism of dietary polyphenols preventing colorectal tumorigenesis” (Bioorg Med Chem, 2019).
Active and inactive are the calls of the source. The rule behind the calls is not given here.

What was measured:
HT-29 [1] = experiment: Effect on ppGalNAcT11 expression level in human HT-29 cells at 40 uM incubated for 48 hrs by Q-PCR analysis; format: ADME, cell-based; settings: ht-29, 48 h
HCT-116 [2] = experiment: Anti-invasive activity in human HCT116 cells at 40 uM incubated for 48 hrs by crystal violet staining based method; format: functional, cell-based
[3] = molecular target: T1, Polypeptide N-acetylgalactosaminyltransferase 2 (Homo sapiens, UniProt Q10471); experiment: Inhibition of ppGalNAcT2 in human HT-29 cells assessed as reduction in O-GalNAc glycans by measuring VVA lectin expression at 20 to 60 uM incubated for 48 hrs by Western blot analysis; format: cell-based
T1 sequence (Q10471 whole entry): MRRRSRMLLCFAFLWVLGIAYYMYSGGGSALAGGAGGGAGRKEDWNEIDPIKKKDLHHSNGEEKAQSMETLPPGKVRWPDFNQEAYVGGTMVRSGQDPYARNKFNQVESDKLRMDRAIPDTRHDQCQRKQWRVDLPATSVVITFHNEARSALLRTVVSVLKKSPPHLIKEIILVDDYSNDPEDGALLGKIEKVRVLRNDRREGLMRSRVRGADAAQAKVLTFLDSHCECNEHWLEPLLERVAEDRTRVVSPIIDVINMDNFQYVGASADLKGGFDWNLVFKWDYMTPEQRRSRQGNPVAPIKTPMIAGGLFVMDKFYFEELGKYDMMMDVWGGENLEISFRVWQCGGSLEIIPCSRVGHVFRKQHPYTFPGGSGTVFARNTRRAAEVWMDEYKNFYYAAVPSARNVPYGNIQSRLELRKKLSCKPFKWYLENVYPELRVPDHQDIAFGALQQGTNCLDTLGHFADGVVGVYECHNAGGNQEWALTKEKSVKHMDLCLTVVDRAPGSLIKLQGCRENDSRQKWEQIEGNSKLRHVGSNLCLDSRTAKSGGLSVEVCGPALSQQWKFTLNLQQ

[4] = molecular target: T1, Polypeptide N-acetylgalactosaminyltransferase 2; experiment: Inhibition of ppGalNAcT2 in human Jurkat cells assessed as reduction in O-GalNAc glycosylation by measuring VVA lectin expression at 40 uM incubated for 48 hrs by Western blot analysis; format: cell-based
[5] = molecular target: T2, Polypeptide N-acetylgalactosaminyltransferase 13 (Homo sapiens, UniProt Q8IUC8); experiment: Inhibition of catalytic activity of ppGalNAcT13 (unknown origin) using EA2 peptide as substrate incubated for 30 mins by HPLC-based enzyme assay
T2 sequence (Q8IUC8 whole entry): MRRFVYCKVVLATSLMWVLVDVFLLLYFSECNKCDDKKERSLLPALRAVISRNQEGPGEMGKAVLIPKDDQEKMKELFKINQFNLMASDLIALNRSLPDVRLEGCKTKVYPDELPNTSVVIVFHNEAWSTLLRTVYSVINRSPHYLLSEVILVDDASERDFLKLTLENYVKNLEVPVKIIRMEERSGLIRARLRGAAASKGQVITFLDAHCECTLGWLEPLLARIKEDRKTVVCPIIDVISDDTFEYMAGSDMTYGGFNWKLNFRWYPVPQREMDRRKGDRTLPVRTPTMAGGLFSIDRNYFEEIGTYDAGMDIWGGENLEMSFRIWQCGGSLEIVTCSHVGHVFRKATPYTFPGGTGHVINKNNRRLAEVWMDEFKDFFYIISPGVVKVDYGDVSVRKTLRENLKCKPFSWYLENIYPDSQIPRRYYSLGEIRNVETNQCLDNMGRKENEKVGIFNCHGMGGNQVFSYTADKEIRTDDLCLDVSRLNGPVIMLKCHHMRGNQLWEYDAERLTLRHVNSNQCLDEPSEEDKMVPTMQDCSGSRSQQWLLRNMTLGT

[6] = molecular target: T1, Polypeptide N-acetylgalactosaminyltransferase 2; experiment: Inhibition of ppGalNAcT2 in human SW480 cells assessed as reduction in O-GalNAc glycosylation by measuring VVA lectin expression at 40 uM incubated for 48 hrs by Western blot analysis; format: cell-based
HT-29 [7] = experiment: Effect on ppGalNAcT3 expression level in human HT-29 cells at 40 uM incubated for 48 hrs by Q-PCR analysis; format: ADME, cell-based; settings: ht-29, 48 h
HT-29 [8] = experiment: Effect on ppGalNAcT5 expression level in human HT-29 cells at 40 uM incubated for 48 hrs by Q-PCR analysis; format: ADME, cell-based; settings: ht-29, 48 h
HT-29 [9] = experiment: Effect on ppGalNAcT15 expression level in human HT-29 cells at 40 uM incubated for 48 hrs by Q-PCR analysis; format: ADME, cell-based; settings: ht-29, 48 h
HT-29 [10] = experiment: Antimigratory activity in human HT-29 cells at 40 uM incubated for 48 hrs by crystal violet staining based method; format: functional, cell-based
[11] = molecular target: T1, Polypeptide N-acetylgalactosaminyltransferase 2; experiment: Inhibition of ppGalNAcT2 in human HCT116 cells assessed as reduction in O-GalNAc glycosylation by measuring VVA lectin expression at 40 uM incubated for 48 hrs by Western blot analysis; format: cell-based
[12] = molecular target: Polypeptide N-acetylgalactosaminyltransferase 2 (Homo sapiens, UniProt Q10471, W282A); experiment: Inhibition of catalytic activity of human recombinant FLAG-tagged ppGalNAcT2 W282A mutant expressed in HEK293 cells using EA2 peptide as substrate by HPLC-based enzyme assay
Sequence of Polypeptide N-acetylgalactosaminyltransferase 2 (Homo sapiens, UniProt Q10471, W282A) (Q10471 whole entry W282A): as the sequence (Q10471 whole entry) above, with W282A counted along it

[13] = molecular target: T3, Polypeptide N-acetylgalactosaminyltransferase 1 (Homo sapiens, UniProt Q10472); experiment: Inhibition of catalytic activity of ppGalNAcT1 (unknown origin) using EA2 peptide as substrate incubated for 30 mins by HPLC-based enzyme assay
T3 sequence (Q10472 whole entry): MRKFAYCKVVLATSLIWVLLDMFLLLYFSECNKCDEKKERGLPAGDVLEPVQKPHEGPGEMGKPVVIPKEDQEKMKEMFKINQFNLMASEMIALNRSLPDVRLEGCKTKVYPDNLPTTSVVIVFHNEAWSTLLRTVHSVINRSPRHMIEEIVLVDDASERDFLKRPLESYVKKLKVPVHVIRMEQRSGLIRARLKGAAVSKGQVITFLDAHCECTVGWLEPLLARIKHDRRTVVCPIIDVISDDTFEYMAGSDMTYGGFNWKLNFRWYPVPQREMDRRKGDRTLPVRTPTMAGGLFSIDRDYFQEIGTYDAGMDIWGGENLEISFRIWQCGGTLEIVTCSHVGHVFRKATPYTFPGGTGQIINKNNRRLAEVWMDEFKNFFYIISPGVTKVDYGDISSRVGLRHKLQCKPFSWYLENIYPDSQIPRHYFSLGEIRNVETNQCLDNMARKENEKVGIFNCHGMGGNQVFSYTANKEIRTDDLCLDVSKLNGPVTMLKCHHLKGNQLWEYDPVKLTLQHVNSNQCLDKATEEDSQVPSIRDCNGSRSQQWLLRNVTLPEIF

HT-29 [14] = experiment: Effect on ppGalNAcT2 expression level in human HT-29 cells at 40 uM incubated for 48 hrs by Western blot analysis; format: ADME, cell-based; settings: ht-29, 48 h
[15] = molecular target: T1, Polypeptide N-acetylgalactosaminyltransferase 2; experiment: Binding affinity of human recombinant FLAG-tagged ppGalNAcT2 expressed in HEK293 cells assessed as dissociation rate by SPR analysis
SW480 [16] = experiment: Cytotoxicity against human SW480 cells at 40 uM incubated for 48 hrs by CCK-8 assay; format: cell-based; settings: sw480, 48 h
HT-29 [17] = experiment: Cytotoxicity against human HT-29 cells at 40 uM incubated for 48 hrs by CCK-8 assay; format: cell-based; settings: ht-29, 48 h
HT-29 [18] = experiment: Effect on N-glycans in human HT-29 cells assessed as change in ConA expression at 40 uM incubated for 48 hrs by Western blot analysis; format: ADME, cell-based; settings: ht-29, 48 h
HT-29 [19] = experiment: Effect on ppGalNAcT2 expression level in human HT-29 cells at 40 uM incubated for 48 hrs by Q-PCR analysis; format: ADME, cell-based; settings: ht-29, 48 h
HT-29 [20] = experiment: Effect on ppGalNAcT13 expression level in human HT-29 cells at 40 uM incubated for 48 hrs by Q-PCR analysis; format: ADME, cell-based; settings: ht-29, 48 h
HCT-116 [21] = experiment: Antimigratory activity in human HCT116 cells at 40 uM incubated for 48 hrs by crystal violet staining based method; format: functional, cell-based
SW480 [22] = experiment: Antimigratory activity in human SW480 cells at 40 uM incubated for 48 hrs by crystal violet staining based method; format: functional, cell-based
[23] = molecular target: T1, Polypeptide N-acetylgalactosaminyltransferase 2; experiment: Binding affinity of human recombinant FLAG-tagged ppGalNAcT2 expressed in HEK293 cells assessed as association rate by SPR analysis
Cricetulus griseus = species: Cricetulus griseus; experiment: Inhibition of ppGalNAcT2 in Chinese hamster ldlD cells assessed as reduction in O-GalNAc glycosylation by measuring metabolic labelled-GalNAz signal at 40 uM incubated for 48 hrs by click chemistry assay; format: cell-based
[24] = molecular target: T1, Polypeptide N-acetylgalactosaminyltransferase 2; experiment: Inhibition of catalytic activity of human recombinant FLAG-tagged ppGalNAcT2 using Muc5AC peptide as substrate incubated for 30 mins by HPLC-based enzyme assay

Structure (SMILES): O=c1oc2c(O)c(O)ccc2c2cc(O)c(O)cc12
- Activity (HT-29 [1]): Non-Toxic
- Activity (HCT-116 [2]): Active
- inhibition [3]: Active
- inhibition [4]: Active
- IC50 [5]: 13.8 µM
- inhibition [6]: Active
- Activity (HT-29 [7]): Non-Toxic
- Activity (HT-29 [8]): Non-Toxic
- Activity (HT-29 [9]): Non-Toxic
- Activity (HT-29 [10]): Active
- inhibition [11]: Active
- IC50 [12]: 3.12 µM
- IC50 [13]: 2460 nM
- Activity (HT-29 [14]): Non-Toxic
- koff [15]: 1.04 ×10⁻³ /s
- Activity (SW480 [16]): Non-Toxic
- Activity (HT-29 [17]): Non-Toxic
- Activity (HT-29 [18]): Non-Toxic
- Activity (HT-29 [19]): Non-Toxic
- Activity (HT-29 [20]): Non-Toxic
- Activity (HCT-116 [21]): Active
- Activity (SW480 [22]): Active
- kon [23]: 3532 M⁻¹ s⁻¹
- inhibition (Cricetulus griseus): Active
- IC50 [24]: 2070 nM
